Reference: patent publication US7101878B1 (Agouron Pharmaceuticals, Inc., priority 1998, dated 2006)
Where two headings read alike, the source gives them in different places.

Biological target: T1, human GnRH receptor (Homo sapiens, UniProt P30968)
T1 construct: expressed in transfected cells; host or cells: HEK 293 (hGnRH-R/293, from Dr. Stuart Sealfon)
T1 sequence (P30968 1-328): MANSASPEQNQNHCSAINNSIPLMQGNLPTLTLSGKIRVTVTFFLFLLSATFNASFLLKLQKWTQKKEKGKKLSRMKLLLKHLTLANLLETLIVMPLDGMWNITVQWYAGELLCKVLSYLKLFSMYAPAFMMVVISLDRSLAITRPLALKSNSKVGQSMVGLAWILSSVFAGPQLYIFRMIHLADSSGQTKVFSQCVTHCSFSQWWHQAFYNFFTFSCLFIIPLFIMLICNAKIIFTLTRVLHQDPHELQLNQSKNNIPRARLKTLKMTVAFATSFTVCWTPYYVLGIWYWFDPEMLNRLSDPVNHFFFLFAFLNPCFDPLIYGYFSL
Experiment: Radioligand binding, 125I-GnRH-A displacement, membranes of HEK 293 cells with human GnRH receptor
Conditions: for IC50: read-out: hGnRH IC50; for remaining activity at 1 µM / remaining activity at 10 µM: substrate remaining, closer to zero = closer to 100% inhibition; for remaining activity at 1 µM: 1 uM compound, read-out: S%R 1 uM hGnRHR; for remaining activity at 10 µM: 10 uM compound, read-out: S%R 10 uM hGnRHR
Procedure, shortened: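 After filtration and PBS washes, bound radioactivity was counted by scintillation and IC50 derived. Identical conditions applied for non-human receptors.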

[1] = 1 uM, read-out: % Inhib. @ 1 uM hGnRH
[2] = 1 h, repeat of % Inhib. at 1 uM, read-out: Repeats @ 1 uM hGnRH

Row | inhibition at 1 µM [1] [%] | inhibition at 1 µM [2] [%] | Structure (SMILES) | also measured
1 | 16 | 24 | Cc1cc2c(cc1Cc1ccc(C(=O)NCCc3ccc(Br)cc3)o1)C(C)(C)CCC2(C)C [drawing 1171] | –
2 | – | – | CCOc1cccc(O)c1NC(=O)c1ccc(Cc2cc3c(cc2C)C(C)(C)CCC3(C)C)o1 [Compound 192] | IC50: 235 nM
3 | – | – | Cc1cc2c(cc1Cc1ccc(C(=O)NCc3ccccc3Br)o1)C(C)(C)CCC2(C)C [Compound 449] | remaining activity at 1 µM (1 h): 42%
4 | 42 | 44 | Cc1cc2c(cc1Cc1ccc(C(=O)NCCC#N)o1)C(C)(C)CCC2(C)C [drawing 1179] | –
5 | – | – | COc1cc(OC)c(OC)cc1Cc1ccc(C(=O)Nc2c(OC)cccc2OC)o1 [Compound 235] | IC50: 3720 nM
6 | – | – | Cc1cc2c(cc1Cc1ccc(C(=O)Nc3ccc(OCc4ccccc4)c(OCc4ccccc4)c3)o1)C(C)(C)CCC2(C)C [Compound 62] | IC50: > 10000 nM
7 | – | – | CC(=O)c1ccc(NC(=O)c2ccc(Cc3cc4c(cc3C)C(C)(C)CCC4(C)C)o2)cc1 [Compound 396] | remaining activity at 10 µM (1 h): 55%
8 | – | – | Cc1cc2c(cc1Cc1ccc(C(=O)NCc3ccc(Cl)cc3Cl)o1)C(C)(C)CCC2(C)C [Compound 425] | remaining activity at 1 µM (1 h): 42%
9 | 15 | 17 | Cc1cc2c(cc1Cc1ccc(C(=O)N(C)C(C)Cc3ccccc3)o1)C(C)(C)CCC2(C)C (stereo not drawn) | –
10 | 81 | 82 | Cc1cc2c(cc1Cc1ccc(C(=O)NCc3cccc(F)c3)o1)C(C)(C)CCC2(C)C [drawing 1195] | –
11 | -7 | 9 | CCCCN(Cc1ccccc1)C(=O)c1ccc(Cc2cc3c(cc2C)C(C)(C)CCC3(C)C)o1 | –
12 | – | – | COc1cc(OC)c(NC(=O)c2ccc(Cc3c(OC)ccc4c3CCCC4=O)o2)c(OC)c1 [Compound 223] | IC50: 1660 nM
13 | -15 | -20 | Cc1cc2c(cc1Cc1ccc(C(=O)N3CCN(c4ccccc4[N+](=O)[O-])CC3)o1)C(C)(C)CCC2(C)C | –
14 | 38 | 45 | Cc1cc2c(cc1Cc1ccc(C(=O)NC3CCc4ccccc43)o1)C(C)(C)CCC2(C)C (stereo not drawn) [drawing 1129] | –
15 | -1 | -9 | Cc1cc2c(cc1Cc1ccc(C(=O)NCCNCCNc3ccccc3)o1)C(C)(C)CCC2(C)C [drawing 1043] | –
16 | – | – | Cc1cc2c(cc1Cc1ccc(C(=O)NCc3ccccc3)o1)C(C)(C)CCC2(C)C [Compound 402] | remaining activity at 1 µM (1 h): 18%
17 | -5 | 62 | Cc1cc2c(cc1Cc1ccc(C(=O)N3CCN(c4ccccc4C#N)CC3)o1)C(C)(C)CCC2(C)C | –
18 | -24 | 9 | Cc1cc2c(cc1Cc1ccc(C(=O)N3CCN(c4ccc(F)cc4)CC3)o1)C(C)(C)CCC2(C)C | –
19 | 51 | 56 | Cc1cc2c(cc1Cc1ccc(C(=O)NCCc3ccc4c(c3)OCO4)o1)C(C)(C)CCC2(C)C [drawing 1055] | –
20 | 75 | 77 | Cc1cc2c(cc1Cc1ccc(C(=O)NCc3cccc([N+](=O)[O-])c3)o1)C(C)(C)CCC2(C)C [drawing 1231] | –
21 | – | – | Cc1cc2c(cc1Cc1ccc(C(=O)NCCc3cccc(F)c3)o1)C(C)(C)CCC2(C)C [Compound 437] | remaining activity at 1 µM (1 h): 40%

Row | inhibition at 1 µM [1] [%] | inhibition at 1 µM [2] [%] | Structure (SMILES) | also measured
22 | – | – | Cc1ccc([C@H](C)NC(=O)c2ccc(Cc3cc4c(cc3C)C(C)(C)CCC4(C)C)o2)cc1 [Compound 123] | IC50: 510 nM
23 | 27 | 38 | Cc1cc2c(cc1Cc1ccc(C(=O)NCCCCNc3nccc(NCC4CCCO4)n3)o1)C(C)(C)CCC2(C)C (stereo not drawn) [drawing 1047] | –
24 | – | – | Cc1cc2c(cc1Cc1ccc(C(=O)Nc3nccc4ccccc34)o1)C(C)(C)CCC2(C)C [Compound 356] | remaining activity at 10 µM (1 h): 17%
25 | – | – | COc1cccc(OC)c1NC(=O)c1ccc(Cc2c(C)c(C)c(C)c(C)c2C)o1 [Compound 204] | IC50: 1270 nM
26 | – | – | Cc1cc2c(cc1Cc1ccc(C(=O)NCCC#N)o1)C(C)(C)CCC2(C)C [Compound 436] | remaining activity at 1 µM (1 h): 58%
27 | – | – | Cc1cc2c(cc1Cc1ccc(C(=O)NCc3cccc(Cl)c3Cl)o1)C(C)(C)CCC2(C)C [Compound 416] | remaining activity at 1 µM (1 h): 34%
28 | – | – | Cc1cc2c(cc1Cc1ccc(C(=O)Nc3ccccc3C(=O)NC3CC45CCN4CCC35)o1)C(C)(C)CCC2(C)C (stereo not drawn) [Compound 349] | remaining activity at 10 µM (1 h): 47%
29 | – | – | CCOC(=O)N1CCC(C)(C)c2c(Cc3ccc(C(=O)Nc4c(OC)cc(OC)cc4OC)o3)c(OC)cc(OC)c21 [Compound 200.5] | IC50: 1230 nM
30 | -17 | -31 | Cc1cc2c(cc1Cc1ccc(C(=O)NCCc3ccc(-c4ccccc4)cc3)o1)C(C)(C)CCC2(C)C | –
31 | 80 | 90 | Cc1cc2c(cc1Cc1ccc(C(=O)NCCc3cccnc3)o1)C(C)(C)CCC2(C)C [drawing 1032] | –
32 | – | – | Cc1nc2cc(NC(=O)c3ccc(Cc4cc5c(cc4C)C(C)(C)CCC5(C)C)o3)ccc2s1 [Compound 360] | remaining activity at 10 µM (1 h): 4%
33 | 38 | 39 | Cc1cc2c(cc1Cc1ccc(C(=O)NC(C)(C)Cc3ccccc3)o1)C(C)(C)CCC2(C)C | –
34 | – | – | Cc1cc2c(cc1Cc1ccc(C(=O)NCCc3ccc(F)cc3)o1)C(C)(C)CCC2(C)C [Compound 446] | remaining activity at 1 µM (1 h): 55%
35 | 23 | 36 | COc1ccc(OC)c(CCNC(=O)c2ccc(Cc3cc4c(cc3C)C(C)(C)CCC4(C)C)o2)c1 [drawing 996] | –
36 | – | – | Cc1cc2c(cc1Cc1ccc(C(=O)Nc3ccc(O)c4ncccc34)o1)C(C)(C)CCC2(C)C [Compound 341] | remaining activity at 10 µM (1 h): 20%
37 | -4 | 11 | Cc1cc2c(cc1Cc1ccc(C(=O)N3CCN(c4ccncc4)CC3)o1)C(C)(C)CCC2(C)C | –
38 | – | – | COc1ccccc1CNC(=O)c1ccc(Cc2cc3c(cc2C)C(C)(C)CCC3(C)C)o1 [Compound 404] | remaining activity at 1 µM (1 h): 13%
39 | – | – | COc1cc(C)c(Cl)c(C)c1Cc1ccc(C(=O)NCc2nc3ccccc3[nH]2)o1 [Compound 234] | IC50: > 10000 nM
40 | 27 | 48 | Cc1cc2c(cc1Cc1ccc(C(=O)NCc3ccc(F)cc3Cl)o1)C(C)(C)CCC2(C)C | –
41 | 12 | 8 | CCN(CCc1ccccn1)C(=O)c1ccc(Cc2cc3c(cc2C)C(C)(C)CCC3(C)C)o1 | –
42 | – | – | COc1ccc(NC(=O)c2ccc(Cc3cc4c(cc3C)C(C)(C)CCC4(C)C)o2)c(OC)c1 [Compound 332] | remaining activity at 10 µM (1 h): 1%

Row | inhibition at 1 µM [1] [%] | inhibition at 1 µM [2] [%] | Structure (SMILES) | also measured
43 | -1 | 12 | Cc1cc2c(cc1Cc1ccc(C(=O)NC(CO)C(O)c3ccccc3)o1)C(C)(C)CCC2(C)C (stereo not drawn) | –
44 | – | – | Cc1cc2c(cc1Cc1ccc(C(=O)Nc3cccc([N+](=O)[O-])c3)o1)C(C)(C)CCC2(C)C [Compound 370] | remaining activity at 10 µM (1 h): 37%
45 | – | – | Cc1cc2c(cc1Cc1ccc(C(=O)NCc3cccnc3)o1)C(C)(C)CCC2(C)C [Compound 400] | remaining activity at 1 µM (1 h): 28%
46 | – | – | Cc1cc2c(cc1Cc1ccc(C(=O)Nc3cc(CO)ccc3C)o1)C(C)(C)CCC2(C)C [Compound 372] | remaining activity at 10 µM (1 h): 1%
47 | – | – | COc1cc(C)c(Cl)c(C)c1Cc1ccc(C(=O)NCc2cnc(C)cn2)o1 [Compound 237] | IC50: > 10000 nM
48 | -22 | 9 | Cc1cc2c(cc1Cc1ccc(C(=O)N3CCN(c4cccc(Cl)c4)CC3)o1)C(C)(C)CCC2(C)C | –
49 | – | – | Cc1cc2c(cc1Cc1ccc(C(=O)NCc3ccc(C(C)(C)C)cc3)o1)C(C)(C)CCC2(C)C [Compound 49] | IC50: 3700 nM
50 | – | – | Cc1cc2c(cc1Cc1ccc(C(=O)NC3CCC(Nc4nccc(NCC5CCCO5)n4)CC3)o1)C(C)(C)CCC2(C)C (stereo not drawn) [Compound 152] | IC50: 700 nM
51 | – | – | COc1cc(NC(=O)c2ccc(Cc3cc4c(cc3C)C(C)(C)CCC4(C)C)o2)cc(OC)c1 [Compound 179] | IC50: 190 nM
52 | – | – | COc1cc(CNC(=O)c2ccc(Cc3cc4c(cc3C)C(C)(C)CCC4(C)C)o2)ccc1O [Compound 448] | remaining activity at 1 µM (1 h): 46%
53 | 52 | 52 | Cc1cc2c(cc1Cc1ccc(C(=O)NC(C)CCc3ccccc3)o1)C(C)(C)CCC2(C)C (stereo not drawn) [drawing 1130] | –
54 | 11 | 16 | Cc1cc2c(cc1Cc1ccc(C(=O)NCc3ccc(F)c(C(F)(F)F)c3)o1)C(C)(C)CCC2(C)C | –
55 | – | – | Cc1cc2c(cc1Cc1ccc(C(=O)Nc3ccc(CC#N)cc3)o1)C(C)(C)CCC2(C)C [Compound 347] | remaining activity at 10 µM (1 h): 2%
56 | – | – | COC(CNC(=O)c1ccc(Cc2cc3c(cc2C)C(C)(C)CCC3(C)C)o1)OC [Compound 196] | IC50: 760 nM
57 | -4 | 0 | Cc1cc2c(cc1Cc1ccc(C(=O)N(CCCO)Cc3ccccn3)o1)C(C)(C)CCC2(C)C [drawing 1107] | –
58 | – | – | Cc1cnc(CNC(=O)c2cccc(Cc3cc4c(cc3C)C(C)(C)CCC4(C)C)c2)cn1 [Compound 37.5] | IC50: 7800 nM
59 | – | – | Cc1ncc(CNC(=O)c2ccc(Cc3cc4c(cc3C)C(C)(C)CCC4(C)C)o2)c(N)n1 [Compound 163] | IC50: 1960 nM
60 | – | – | COc1cc(OC)c(NC(=O)c2cc(Cc3cc4c(cc3C)C(C)(C)CCC4(C)C)on2)c(OC)c1 [Compound 218] | IC50: 6460 nM
61 | – | – | Cc1cc2c(cc1Cc1ccc(C(=O)NCCOCCO)o1)C(C)(C)CCC2(C)C [Compound 401] | remaining activity at 1 µM (1 h): 32%
62 | – | – | Cc1cc2c(cc1Cc1ccc(C(=O)NC(C)c3ccc([N+](=O)[O-])cc3)o1)C(C)(C)CCC2(C)C (stereo not drawn) [Compound 455] | remaining activity at 1 µM (1 h): 58%
